SMILES strings stand for the structures. Counter-ions that a name gives are not always drawn.

For test [1], the target named is T1, Nav 1.7 (Homo sapiens (Human), UniProt Q15858). Briefly: Nav 1.7 IWQ in vitro assay (IonWorks Quattro population patch-clamp). The note with it: for IC50: 293 cells stably transfected with Nav 1.7, second part of table, read-out: Nav1.7 IWQ IC50 IP. The format is cell-based. Put shortly: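 Percent block, measured in duplicate, came from peak minus end-of-pulse current on the 26th −20 mV step, and IC50 was fitted against concentration. Stably transfected 293 cells were recorded in population patch-clamp mode before and after a single test concentration, which was added over 3–8 min while cells were unclamped.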

Test [2] has as its target T1, Nav 1.7. Briefly: Nav 1.7 in vitro PX assay (PatchXpress whole cell voltage clamp). Type of test: cell-based. The note with it: 293 cells, human Nav1.7, partially inactivated state; read-out: Nav1.7 PX IC50 IP. Put shortly:
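Partially inactivated channel state (holding potential for 20–50% inactivation) probed in human Nav1.7-transfected 293 cells by automated patch clamp, test pulse −10 mV for 20 msec.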

T1 sequence (Q15858 whole entry): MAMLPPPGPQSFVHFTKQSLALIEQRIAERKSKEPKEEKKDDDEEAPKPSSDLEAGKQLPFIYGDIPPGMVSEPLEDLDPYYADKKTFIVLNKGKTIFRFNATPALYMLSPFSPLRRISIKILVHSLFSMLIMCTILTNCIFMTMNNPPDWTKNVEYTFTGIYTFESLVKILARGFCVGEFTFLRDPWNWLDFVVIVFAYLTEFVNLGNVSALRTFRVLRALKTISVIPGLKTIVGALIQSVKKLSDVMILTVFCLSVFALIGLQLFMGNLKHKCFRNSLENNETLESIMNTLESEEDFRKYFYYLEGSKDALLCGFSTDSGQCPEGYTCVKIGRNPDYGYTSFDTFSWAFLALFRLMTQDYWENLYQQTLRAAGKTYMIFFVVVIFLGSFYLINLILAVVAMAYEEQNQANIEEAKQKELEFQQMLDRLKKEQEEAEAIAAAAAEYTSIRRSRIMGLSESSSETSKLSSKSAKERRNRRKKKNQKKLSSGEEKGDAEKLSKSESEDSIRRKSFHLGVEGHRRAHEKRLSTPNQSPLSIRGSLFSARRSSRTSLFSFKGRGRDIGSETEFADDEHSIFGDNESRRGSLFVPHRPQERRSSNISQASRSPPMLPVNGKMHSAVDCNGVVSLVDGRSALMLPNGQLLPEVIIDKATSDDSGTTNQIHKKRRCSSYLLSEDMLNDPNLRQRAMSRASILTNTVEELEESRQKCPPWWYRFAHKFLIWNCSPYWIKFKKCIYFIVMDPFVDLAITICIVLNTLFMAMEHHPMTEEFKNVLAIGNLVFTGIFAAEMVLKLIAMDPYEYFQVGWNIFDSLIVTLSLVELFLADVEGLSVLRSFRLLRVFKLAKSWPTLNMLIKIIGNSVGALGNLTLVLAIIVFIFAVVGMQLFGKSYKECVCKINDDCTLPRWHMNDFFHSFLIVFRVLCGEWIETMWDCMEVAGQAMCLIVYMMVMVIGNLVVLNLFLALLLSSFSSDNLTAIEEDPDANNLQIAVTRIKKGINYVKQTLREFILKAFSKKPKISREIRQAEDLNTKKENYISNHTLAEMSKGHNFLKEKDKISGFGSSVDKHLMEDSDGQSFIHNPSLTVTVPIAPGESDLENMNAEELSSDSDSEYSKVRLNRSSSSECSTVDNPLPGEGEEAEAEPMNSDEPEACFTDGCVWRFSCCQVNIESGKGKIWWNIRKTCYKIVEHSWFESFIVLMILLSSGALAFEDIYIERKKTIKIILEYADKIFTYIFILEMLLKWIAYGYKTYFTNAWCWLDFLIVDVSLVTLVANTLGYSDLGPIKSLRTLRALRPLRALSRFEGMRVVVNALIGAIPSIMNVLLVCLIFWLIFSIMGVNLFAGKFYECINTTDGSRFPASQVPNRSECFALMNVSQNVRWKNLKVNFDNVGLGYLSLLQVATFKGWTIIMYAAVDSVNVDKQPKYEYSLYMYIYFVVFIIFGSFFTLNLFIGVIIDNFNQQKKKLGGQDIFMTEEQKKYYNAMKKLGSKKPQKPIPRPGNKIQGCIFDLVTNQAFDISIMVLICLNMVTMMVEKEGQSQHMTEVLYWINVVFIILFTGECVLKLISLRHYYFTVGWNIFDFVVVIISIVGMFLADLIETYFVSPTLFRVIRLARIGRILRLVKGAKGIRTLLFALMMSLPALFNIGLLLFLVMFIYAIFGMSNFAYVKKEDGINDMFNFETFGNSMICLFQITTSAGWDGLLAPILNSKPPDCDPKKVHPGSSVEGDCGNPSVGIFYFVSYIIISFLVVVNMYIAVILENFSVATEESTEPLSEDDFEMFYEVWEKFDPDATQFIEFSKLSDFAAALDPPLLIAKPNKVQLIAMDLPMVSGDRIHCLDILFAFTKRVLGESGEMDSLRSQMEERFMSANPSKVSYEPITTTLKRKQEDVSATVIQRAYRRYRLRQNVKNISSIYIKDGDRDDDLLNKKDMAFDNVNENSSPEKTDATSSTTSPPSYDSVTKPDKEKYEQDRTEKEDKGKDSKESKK

For `COc1cc(C(F)(F)F)ccc1-c1ncc(C#N)c2cc(S(=O)(=O)Nc3ccncn3)ccc12` [Example 242, 4-CYANO-1-(2-METHOXY-4-(TRIFLUOROMETHYL)PHENYL)-N-(PYRIMIDIN-4-YL)ISOQUINOLINE-6-SULFONAMIDE], the IC50 in test [1] came out at 2500 nM; in test [2] it was 3890 nM.

As for `O=S(=O)(Nc1nccs1)c1ccc2c(N3CCC(c4ccccc4)C3)nccc2c1` (stereo not shown) [Example 243, 1-(3-PHENYLPYRROLIDIN-1-YL)-N-(THIAZOL-2-YL)ISOQUINOLINE-6-SULFONAMIDE], the IC50 in test [1] came to 780 nM; in test [2], 10700 nM.

Consider `Cn1cccc1-c1nccc2cc(S(=O)(=O)Nc3nccs3)ccc12` [Example 244, 1-(1-METHYL-1H-PYRROL-2-YL)-N-(THIAZOL-2-YL)ISOQUINOLINE-6-SULFONAMIDE], for which the IC50 in test [1] turned out to be 1170 nM; in test [2], 11300 nM.

As to `O=S(=O)(Nc1nccs1)c1ccc2c(C3CCCN3C3CCOCC3)nccc2c1` (stereo not shown) [Example 245, 1-(1-(TETRAHYDRO-2H-PYRAN-4-YL)PYRROLIDIN-2-YL)-N-(THIAZOL-2-YL)ISOQUINOLINE-6-SULFONAMIDE 2,2,2-TRIFLUOROACETATE], the IC50 in test [1] came to 2220 nM; in test [2] it was 30800 nM.

For the compound `COCCN1CCCC1c1nccc2cc(S(=O)(=O)Nc3nccs3)ccc12` (stereo not shown) [Example 246, 1-(1-(2-METHOXYETHYL)PYRROLIDIN-2-YL)-N-(THIAZOL-2-YL)ISOQUINOLINE-6-SULFONAMIDE], the IC50 in test [1] was found to be 2150 nM; in test [2], 27400 nM.

Consider `COc1cc(Cl)ccc1-c1nncc2cc(S(=O)(=O)Nc3nccs3)ccc12` [Example 249, 1-(4-CHLORO-2-METHOXYPHENYL)-N-(THIAZOL-2-YL)PHTHALAZINE-6-SULFONAMIDE], for which the concentration for half-maximal inhibition (IC50) in test [1] worked out at 30 nM; in test [2], 290 nM.

In the case of `COc1cc(F)ccc1-c1nncc2cc(S(=O)(=O)Nc3nccs3)ccc12` [Example 250, 1-(4-FLUORO-2-METHOXYPHENYL)-N-(THIAZOL-2-YL)PHTHALAZINE-6-SULFONAMIDE], the IC50 in test [1] was 50 nM; in test [2] it was 1150 nM.

Turning to `COc1cc(C#N)ccc1-c1nncc2cc(S(=O)(=O)Nc3nccs3)ccc12` [Example 251, 1-(4-CYANO-2-METHOXYPHENYL)-N-(THIAZOL-2-YL)PHTHALAZINE-6-SULFONAMIDE], the results for the half-maximal inhibitory concentration (IC50) in test [1] and in test [2] were 80 nM and 1990 nM, respectively.

Turning to `COc1ccccc1-c1nncc2cc(S(=O)(=O)Nc3nccs3)ccc12` [Example 252, 1-(2-METHOXYPHENYL)-N-(THIAZOL-2-YL)PHTHALAZINE-6-SULFONAMIDE], the half-inhibitory concentration (IC50) in test [1] came out at 120 nM; in test [2], 1920 nM.

Consider `COc1cc(C(F)(F)F)ccc1-c1nncc2cc(S(=O)(=O)Nc3nccs3)ccc12` [Example 253, 1-(2-METHOXY-4-(TRIFLUOROMETHYL)PHENYL)-N-(THIAZOL-2-YL)PHTHALAZINE-6-SULFONAMIDE], for which the IC50 in test [1] was found to be 20 nM; in test [2] it was 340 nM.

As for `COc1cc(C(F)(F)F)ccc1-c1nncc2cc(S(=O)(=O)Nc3ccncn3)ccc12` [Example 254, 1-(2-METHOXY-4-(TRIFLUOROMETHYL)PHENYL)-N-(PYRIMIDIN-4-YL)PHTHALAZINE-6-SULFONAMIDE], the IC50 was determined as 260 nM in test [1] and 5260 nM in test [2].

For the compound `COc1cc(C(F)(F)F)ccc1-c1nncc2cc(S(=O)(=O)Nc3ncc(F)s3)ccc12` [Example 255, N-(5-FLUOROTHIAZOL-2-YL)-1-(2-METHOXY-4-(TRIFLUOROMETHYL)PHENYL)PHTHALAZINE-6-SULFONAMIDE], the IC50 in test [1] came to 20 nM; in test [2], 150 nM.

For the compound `COc1cc(F)ccc1-c1nncc2cc(S(=O)(=O)Nc3ncc(F)s3)ccc12` [Example 256, 1-(4-FLUORO-2-METHOXYPHENYL)-N-(5-FLUOROTHIAZOL-2-YL)PHTHALAZINE-6-SULFONAMIDE], the IC50 in test [1] was found to be 70 nM; in test [2], 840 nM.

Consider `COc1ccccc1-c1nncc2cc(S(=O)(=O)Nc3ncc(F)s3)ccc12` [Example 258], for which the IC50 was determined as 260 nM in test [1] and 1050 nM in test [2].

For the compound `COc1cc(C(F)(F)F)ccc1-c1ncnc2cc(S(=O)(=O)Nc3ccncn3)ccc12` [Example 262, 4-(2-METHOXY-4-(TRIFLUOROMETHYL)PHENYL)-N-(PYRIMIDIN-4-YL)QUINAZOLINE-7-SULFONAMIDE], the half-maximal inhibitory concentration (IC50) in test [1] is 40 nM; in test [2], 960 nM.

On to `COc1cc(C(F)(F)F)ccc1-c1ncnc2cc(S(=O)(=O)Nc3ncc(F)s3)ccc12` [Example 263, N-(5-FLUOROTHIAZOL-2-YL)-4-(2-METHOXY-4-(TRIFLUOROMETHYL)PHENYL)QUINAZOLINE-7-SULFONAMIDE], for which the IC50 in test [1] was 10 nM; in test [2], 280 nM.

Regarding `COc1cc(C(F)(F)F)ccc1-c1ncnc2cc(S(=O)(=O)Nc3ncco3)ccc12` [Example 264, 4-(2-METHOXY-4-(TRIFLUOROMETHYL)PHENYL)-N-(OXAZOL-2-YL)QUINAZOLINE-7-SULFONAMIDE], the 50% inhibitory concentration (IC50) was determined as 170 nM in test [1] and 1870 nM in test [2].

For the compound `COc1cc(C(F)(F)F)ccc1-c1ncnc2cc(S(=O)(=O)Nc3ncns3)ccc12` [Example 265, 4-(2-METHOXY-4-(TRIFLUOROMETHYL)PHENYL)-N-(1,2,4-THIADIAZOL-5-YL)QUINAZOLINE-7-SULFONAMIDE], the results for the IC50 in test [1] and in test [2] were 20 nM and 150 nM, respectively.

Take `COc1cc(C(F)F)ccc1-c1ncnc2cc(S(=O)(=O)Nc3nccs3)ccc12` [Example 266, 4-(4-(DIFLUOROMETHYL)-2-METHOXYPHENYL)-N-(THIAZOL-2-YL)QUINAZOLINE-7-SULFONAMIDE]: the figures for the IC50 in test [1] and in test [2] were 10 nM and 280 nM, respectively.

With `COc1cc(Cl)ccc1-c1ncnc2cc(S(=O)(=O)Nc3nccs3)ccc12` [Example 267, 4-(4-CHLORO-2-METHOXYPHENYL)-N-(THIAZOL-2-YL)QUINAZOLINE-7-SULFONAMIDE], the concentration for half-maximal inhibition (IC50) in test [1] was 10 nM; in test [2] it was 300 nM.

Take `COc1cc(C(F)(F)F)ccc1-c1ncnc2cc(S(=O)(=O)Nc3nncs3)ccc12` [Example 268, 4-(2-METHOXY-4-(TRIFLUOROMETHYL)PHENYL)-N-(1,3,4-THIADIAZOL-2-YL)QUINAZOLINE-7-SULFONAMIDE]: the IC50 in test [1] was 1100 nM; in test [2], 2520 nM.

With `COc1cc(C#N)ccc1-c1ncnc2cc(S(=O)(=O)Nc3nccs3)ccc12` [Example 269, 4-(4-CYANO-2-METHOXYPHENYL)-N-(THIAZOL-2-YL)QUINAZOLINE-7-SULFONAMIDE], the IC50 in test [1] was 20 nM; in test [2], 470 nM.

Consider `COc1cc(C#N)ccc1-c1ccnc2cc(S(=O)(=O)Nc3nccs3)ccc12` [Example 273, 4-(4-CYANO-2-METHOXYPHENYL)-N-(THIAZOL-2-YL)QUINOLINE-7-SULFONAMIDE], for which the IC50 in test [1] is 20 nM; in test [2] it was 500 nM.

In the case of `COc1cc(F)ccc1-c1ccnc2cc(S(=O)(=O)Nc3nccs3)ccc12` [Example 274, 4-(4-FLUORO-2-METHOXYPHENYL)-N-(THIAZOL-2-YL)QUINOLINE-7-SULFONAMIDE], the values for the IC50 in test [1] and in test [2] were 30 nM and 490 nM, respectively.

Turning to `COc1cc(Cl)ccc1-c1ccnc2cc(S(=O)(=O)Nc3nccs3)ccc12` [Example 275, 4-(4-CHLORO-2-METHOXYPHENYL)-N-(THIAZOL-2-YL)QUINOLINE-7-SULFONAMIDE], the IC50 in test [1] came to 40 nM; in test [2] it was 420 nM.

Consider `COc1ccccc1-c1ccnc2cc(S(=O)(=O)Nc3nccs3)ccc12` [Example 277, 4-(2-METHOXYPHENYL)-N-(THIAZOL-2-YL)QUINOLINE-7-SULFONAMIDE], for which the IC50 in test [1] is 70 nM; in test [2], 340 nM.

On to `O=S(=O)(Nc1nccs1)c1ccc2c(-c3ccc(C(F)(F)F)cc3Cl)ccnc2c1` [Example 278, 4-(2-CHLORO-4-(TRIFLUOROMETHYL)PHENYL)-N-(THIAZOL-2-YL)QUINOLINE-7-SULFONAMIDE], for which the IC50 in test [1] was 220 nM; in test [2], 2020 nM.

For the compound `COc1cc(C(F)(F)F)ccc1-c1c(N)cnc2cc(S(=O)(=O)Nc3nccs3)ccc12` [Example 283, 3-AMINO-4-(2-METHOXY-4-(TRIFLUOROMETHYL)PHENYL)-N-(THIAZOL-2-YL)QUINOLINE-7-SULFONAMIDE], the IC50 in test [1] was determined as 10 nM; in test [2], 210 nM.

With `COc1cc(C(F)(F)F)ccc1-c1c(C#N)cnc2cc(S(=O)(=O)Nc3nccs3)ccc12` [Example 284, 3-CYANO-4-(2-METHOXY-4-(TRIFLUOROMETHYL)PHENYL)-N-(THIAZOL-2-YL)QUINOLINE-7-SULFONAMIDE], the IC50 in test [1] was 60 nM; in test [2] it was 320 nM.

For `COc1cc(C(F)(F)F)ccc1-c1cncc2cc(S(=O)(=O)Nc3ccncn3)ccc12` [Example 285, 4-(2-METHOXY-4-(TRIFLUOROMETHYL)PHENYL)-N-(PYRIMIDIN-4-YL)ISOQUINOLINE-7-SULFONAMIDE HYDROCHLORIDE], the IC50 in test [1] worked out at 40 nM; in test [2], 580 nM.

As for `COc1cc(C(F)(F)F)ccc1-c1cncc2cc(S(=O)(=O)Nc3nccs3)ccc12` [Example 288, 4-(2-METHOXY-4-(TRIFLUOROMETHYL)PHENYL)-N-(THIAZOL-2-YL)ISOQUINOLINE-7-SULFONAMIDE], the figures for the IC50 in test [1] and in test [2] were 40 nM and 600 nM, respectively.

With `COc1cc(C(F)(F)F)ccc1-c1nccc2cc(S(=O)(=O)Nc3nccs3)cnc12` [Example 291, 8-(2-METHOXY-4-(TRIFLUOROMETHYL)PHENYL)-N-(THIAZOL-2-YL)-1,7-NAPHTHYRIDINE-3-SULFONAMIDE], the results for the IC50 in test [1] and in test [2] were 160 nM and 2530 nM, respectively.

For the compound `COC(=O)c1cccc2cc(S(=O)(=O)Nc3ncns3)ccc12` [Example 318, METHYL 6-(N-(1,2,4-THIADIAZOL-5-YL)SULFAMOYL)-1-NAPHTHOATE], the results for the IC50 in test [1] and in test [2] were over 10000 nM and 37400 nM, respectively. The “Nav1.7 Single Point Data IWQ (at […]) (%)” value in test [1] (at […]) was found to be 32%.

Source of the values: US9012443B2 (Amgen Inc., priority 2011, dated 2015).
